Measured values from US20100130612A1, “COMPOSITION CONTAINING CHITOSAN FOR SUSTAINED DRUG RELEASE” (THE JORDANIAN PHARMACEUTICAL MANUFACTURING CO., priority 2005, published 2010).

Test: Solubility of acidic drugs in acidic media when combined with chitosan polymer solution
Assay type: physicochemical
Conditions: pH<5.0; combined with a respective chitosan polymer solution

For `O=C(O)Cc1ccccc1Nc1c(Cl)cccc1Cl` [diclofenac sodium], the “solubility in acidic media (in words)” value was “soluble in acidic media”.
In the case of `CC(C)Cc1ccc(C(C)C(=O)O)cc1.[Na]` (centres unmarked) [ibuprofen sodium], the “solubility in acidic media (in words)” value is reported as “soluble in acidic media”.
